One assay concerns the target T1, IDH2 R140Q (Homo sapiens, UniProt P48735, R140Q).
T1 sequence (P48735 40-452 R140Q): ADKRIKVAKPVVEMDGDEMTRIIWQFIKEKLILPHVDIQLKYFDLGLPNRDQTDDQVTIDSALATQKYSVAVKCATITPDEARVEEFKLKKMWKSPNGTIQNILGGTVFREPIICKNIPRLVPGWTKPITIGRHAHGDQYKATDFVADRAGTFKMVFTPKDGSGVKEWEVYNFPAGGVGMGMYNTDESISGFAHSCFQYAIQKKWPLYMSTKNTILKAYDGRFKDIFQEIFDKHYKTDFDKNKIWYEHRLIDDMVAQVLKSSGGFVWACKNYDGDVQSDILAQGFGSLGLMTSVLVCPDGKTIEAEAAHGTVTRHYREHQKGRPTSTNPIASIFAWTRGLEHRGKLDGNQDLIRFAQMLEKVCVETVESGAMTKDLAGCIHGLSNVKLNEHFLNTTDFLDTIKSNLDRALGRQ
The assay can be described thus: IDH2 R140Q enzymatic assay (cofactor depletion, similar format). Type of assay: biochemical. The settings on record: read-out: Enz R140Q.

Assay [1] has as its system U87MG pLVX-IDH2 R140Q-neo cells. The assay can be described thus: U87MG pLVX-IDH2 R140Q-neo cell based assay, 2-HG in media by LC-MS at 48 hours. The settings on record: Homo sapiens, U-87 MG. The procedure, abridged:
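U87MG cells stably expressing IDH2 R140Q were seeded overnight, then exposed to compound at 0.2% final DMSO at 37 °C, 5% CO2. 2-HG in the medium was quantified by LC-MS at 48 h. Growth inhibition was read by CellTiter-Glo luminescence at 72 h.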

The target in the next assay is T2, IDH2 R172K (Homo sapiens, UniProt P48735, R172K).
T2 sequence (P48735 40-452 R172K): T1 sequence (P48735 40-452 R140Q) with Q101R, R133K
The assay can be described thus: IDH2 R172K enzymatic assay (NADPH cofactor depletion, diaphorase/resazurin readout). Type of assay: biochemical. To be noted: read-out: Enz R172K. The procedure, abridged:
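Test compounds are incubated with the mutant enzyme for one hour at ambient temperature. A substrate mix of 50 μM NADPH plus 6.3 mM α-KG initiates turnover, which proceeds for one hour. Diaphorase and resazurin then halt the reaction by depleting the cofactor and convert the remaining NADPH into a fluorescent signal.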

Substitutions are numbered along the chain they refer to.

Consider `CC(C)(C)Nc1nc(Nc2cc(F)cc(F)c2)nc(-c2cccc(C(C)(F)F)n2)n1` [Compound 585, N2-(tert-butyl)-6-(6-(1,1-difluoroethyl)pyridin-2-yl)-N4-(3,5-difluorophenyl)-1,3,5-triazine-2,4-diamine], for which the IC50 at IDH2 R140Q was 0.1 to 1 µM; in assay [1], < 0.1 µM; at IDH2 R172K, < 0.1 µM.
For `FC(F)(F)c1cc(Nc2nc(NC3CCOCC3)nc(-c3cccc(C(F)(F)F)n3)n2)ccn1` [Compound 587, N2-(tetrahydro-2H-pyran-4-yl)-6-(6-(trifluoromethyl)pyridin-2-yl)-N4-(2-(trifluoromethyl)pyridin-4-yl)-1,3,5-triazine-2,4-diamine], the IC50 on IDH2 R140Q is 0.1 to 1 µM; in assay [1], < 0.1 µM; at IDH2 R172K, < 0.1 µM.
Take `OC1CCCC1Nc1nc(Nc2ccnc(C(F)(F)F)c2)nc(-c2cccc(C(F)(F)F)n2)n1` (stereo not drawn) [Compound 588, 2-((4-(6-(trifluoromethyl)pyridin-2-yl)-6-((2-(trifluoromethyl)pyridin-4-yl)amino)-1,3,5-triazin-2-yl)amino)cyclopentanol]: the IC50 at IDH2 R140Q is 0.1 to 1 µM; in assay [1], < 0.1 µM; on IDH2 R172K, 0.1 to 1 µM.
In the case of `CC(C)(C)Nc1nc(Nc2cc(F)cc(S(C)(=O)=O)c2)nc(-c2cccc(C(F)(F)F)n2)n1` [Compound 592, N-tert-Butyl-N′-(3-fluoro-5-methanesulfonyl-phenyl)-6-(6-trifluoromethyl-pyridin-2-yl)-[1,3,5]triazine-2,4-diamine], the IC50 was 0.1 to 1 µM at IDH2 R140Q, < 0.1 µM in assay [1] and 0.1 to 1 µM at IDH2 R172K.
Turning to `CS(=O)(=O)c1cc(F)cc(Nc2nc(NCC3CC3)nc(-c3cccc(C(F)(F)F)n3)n2)c1` [Compound 593, N-Cyclopropylmethyl-N′-(3-fluoro-5-methanesulfonyl-phenyl)-6-(6-trifluoromethyl-pyridin-2-yl)-[1,3,5]triazine-2,4-diamine], the figures for the IC50 (at IDH2 R140Q; in assay [1]; at IDH2 R172K) were 0.1 to 1 µM, < 0.1 µM and < 0.1 µM, respectively.
As to `CC(C)(O)CNc1nc(Nc2ccnc(C(F)(F)F)c2)nc(-c2cccc(C(C)(F)F)n2)n1` [Compound 594, 1-((4-(6-(1,1-difluoroethyl)pyridin-2-yl)-6-((2-(trifluoromethyl)pyridin-4-yl)amino)-1,3,5-triazin-2-yl)amino)-2-methylpropan-2-ol], the figures for the IC50 (on IDH2 R140Q; in assay [1]; on IDH2 R172K) were 0.1 to 1 µM, < 0.1 µM and 0.1 to 1 µM, respectively.
For the compound `CC(F)(F)c1cccc(-c2nc(NCC3CC3)nc(Nc3ccnc(C(F)(F)F)c3)n2)n1` [Compound 595, N2-(cyclopropylmethyl)-6-(6-(1,1-difluoroethyl)pyridin-2-yl)-N4-(2-(trifluoromethyl)pyridin-4-yl)-1,3,5-triazine-2,4-diamine], the IC50 at IDH2 R140Q is 0.1 to 1 µM; in assay [1], < 0.1 µM; on IDH2 R172K it was < 0.1 µM.
Regarding `CC(C)(C)Nc1nc(Nc2ccnc(C(C)(F)F)c2)nc(-c2cccc(C(C)(F)F)n2)n1` [Compound 596, N2-(tert-butyl)-6-(6-(1,1-difluoroethyl)pyridin-2-yl)-N4-(2-(1,1-difluoroethyl)pyridin-4-yl)-1,3,5-triazine-2,4-diamine], the IC50 is 0.1 to 1 µM on IDH2 R140Q, < 0.1 µM in assay [1] and < 0.1 µM at IDH2 R172K.
As to `FC(F)(F)c1cc(Nc2nc(NCC3CC3)nc(-c3cccc(C(F)(F)F)n3)n2)ccn1` [Compound 597, N2-(cyclopropylmethyl)-6-(6-(trifluoromethyl)pyridin-2-yl)-N4-(2-(trifluoromethyl)pyridin-4-yl)-1,3,5-triazine-2,4-diamine], the IC50 was 0.1 to 1 µM on IDH2 R140Q, < 0.1 µM in assay [1] and < 0.1 µM at IDH2 R172K.
For the compound `Fc1cc(F)cc(Nc2nc(NCC3CC3)nc(-c3cccc(C(F)(F)F)n3)n2)c1` [Compound 598, N2-(cyclopropylmethyl)-N4-(3,5-difluorophenyl)-6-(6-(trifluoromethyl)pyridin-2-yl)-1,3,5-triazine-2,4-diamine], the IC50 on IDH2 R140Q is 0.1 to 1 µM; in assay [1] it was < 0.1 µM; at IDH2 R172K it was < 0.1 µM.

The values above are taken from patent publication US9512107B2, “Therapeutically active compositions and their methods of use” (Agios Pharmaceuticals, Inc., priority 2012, dated 2016).
